Data on 36 compounds can be found in patent US11286268B1, “EIF4E-inhibiting compounds and methods” (EFFECTOR THERAPEUTICS, INC., priority 2019, dated 2022).

In this assay the target is recombinant eIF4E (Homo sapiens (Human), UniProt P06730). In words: Fluorescence polarization competition assay for eIF4E binding potency. In outline:
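Competition of test compound against 20 nM EDA-m^7GDP-ATTO-550 for 75 nM recombinant eIF4E, pre-incubated 5 min, in 20 mM Tris pH 7.5, 100 mM NaCl, 1 mM DTT, 0.02% Tween-20, 1% DMSO. Equilibrated 30 min at room temperature, dark; fluorescence polarization read. IC50 from 8-point, 3-fold dilution series.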
(Polarisation of emitted light reports the rotation of a fluorescent probe.)

Setting [1] is: inhibition of eIF4E/EDA-m7GDP-ATTO-550 binding, calculated IC50 values, Table 4B, read-out: IC50.
The mark [2] stands for this setting: fluorescence polarization competition, 75 nM recombinant eIF4E, 20 nM EDA-m7GDP-ATTO-550, IC50 class, read-out: elF4E FP.
[3] abbreviates: inhibition of eIF4E/EDA-m7GDP-ATTO-550 binding by 50%, Table 4B calculated values, read-out: IC50.

Where two headings read alike, the source gives them in different places.

recombinant eIF4E, sequence (P06730 whole entry): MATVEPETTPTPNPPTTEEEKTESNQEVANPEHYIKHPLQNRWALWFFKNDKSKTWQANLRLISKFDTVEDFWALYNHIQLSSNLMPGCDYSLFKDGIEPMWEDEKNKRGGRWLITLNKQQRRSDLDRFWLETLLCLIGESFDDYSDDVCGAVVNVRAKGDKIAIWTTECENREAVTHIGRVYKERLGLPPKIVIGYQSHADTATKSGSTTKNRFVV

Turning to `Cc1nc2cnc(N(C)C3CCN(CC(F)(F)F)CC3)c(C#N)c2c(=O)n1CC#Cc1ccc(Cl)cc1-c1ccnc2c(C(=O)NS(=O)(=O)C3CC3)csc12` [compound 1547], under setting [1], the IC50 is 15.2 nM. For the compound `CCOc1ncc2nc(C)n(CCOc3ccc(Cl)cc3-c3cc(C)nc4c(C(=O)O)csc34)c(=O)c2c1C#N` [compound 1067], the IC50 by setting is: under setting [2], less than 50 nM; under setting [3], 10.5 nM. For `Cc1cc(-c2cc(Cl)ccc2OCCn2c(C)cc3cnc(N(C)C)c(C#N)c3c2=O)c2scc(C(=O)O)c2n1` [compound 1002] the same measures were less than 50 nM and 2.37 nM. On the same counts, the results for `Cc1nc2cnc(N(C)C3CCN(C4(C)COC4)CC3)c(C#N)c2c(=O)n1CC#Cc1ccc(Cl)cc1-c1ccnc2c(C(=O)O)csc12` [compound 1118] are less than 50 nM and 14 nM. As for `Cc1cc(-c2cc(Cl)ccc2OCCn2c(C)nc3cc(C(F)(F)F)c(N(C)C)c(C#N)c3c2=O)c2scc(C(=O)O)c2n1` [compound 1619], the IC50 under setting [1] was 31.6 nM. `COC(=O)c1csc2c(-c3cc(Cl)ccc3C#CCn3c(C)nc4cnc(N(C)C5CCN(CC(F)(F)F)CC5)c(C#N)c4c3=O)ccnc12` [compound 1195]: the IC50 reads like this: under setting [2], less than 50 nM; under setting [1], 13.1 nM.

In the case of `O=C(O)c1cccc(-c2cc(Cl)ccc2OCCn2cnc3cc(F)ccc3c2=O)c1` [compound 3], the IC50 was more than 1000 nM under setting [2] and 4720 nM under setting [3].

Take `Cc1cc(-c2cc(Cl)ccc2OCCn2c(C)nc3cnc(C4CC4C(F)(F)F)c(C#N)c3c2=O)c2scc(C(=O)O)c2n1` (stereo not shown) [compound 994]: the IC50 is, setting by setting: under setting [2], less than 50 nM; under setting [3], 23.4 nM. As for `CCN(c1ncc2nc(C)n(CC#Cc3ccc(Cl)cc3-c3ccnc4c(C(=O)NS(=O)(=O)c5cccnc5)csc34)c(=O)c2c1C#N)C1CCN(C2COC2)CC1` [compound 1741], the IC50 under setting [1] is 11 nM. Turning to `Cc1cc(-c2cc(Cl)ccc2OCCn2c(C)nc3cc(Cl)c(NC(C)(C)C)c(C#N)c3c2=O)c2scc(C(=O)O)c2n1` [compound 956], the IC50 is less than 50 nM under setting [2] and 16.5 nM under setting [3].

Take `Cc1cc(-c2cc(Cl)ccc2OCCn2c(C)nc3cc(C(F)(F)F)c(Cc4ncccc4F)c(C#N)c3c2=O)c2scc(C(=O)O)c2n1` [compound 473]: the IC50 reads like this: under setting [2], less than 50 nM; under setting [3], 14.5 nM. For `CCN(c1ncc2nc(C)n(CC#Cc3ccc(Cl)cc3-c3ccnc4c(C(=O)NS(C)(=O)=O)csc34)c(=O)c2c1C#N)C1CCN(CC(F)(F)C(F)F)CC1` [compound 1607], the IC50 under setting [1] is 14.6 nM. Same read-out and setting: to `N#Cc1ccc(F)c2nc(C(F)F)n(CCOc3ccc(Cl)cc3-c3ccnc4c(C(=O)O)csc34)c(=O)c12` [compound 1941] belongs 61.6 nM; to `Cc1nc2cc(C(F)(F)F)c(N3CCN(C)CC3=O)c(C#N)c2c(=O)n1CC#Cc1ccc(Cl)cc1-c1ccnc2c(C(=O)O)csc12` [compound 1270], 39.9 nM. Consider `Cc1cc(-c2cc(Cl)ccc2OCCn2c(C)nc3cc(Cl)c(-c4ccc(N(C)C)nc4)c(C#N)c3c2=O)c2scc(C(=O)O)c2n1` [compound 397], for which the IC50 by setting is: under setting [2], less than 50 nM; under setting [3], 10.5 nM. For `Cc1nc2cnc(OC3CCN(CC(F)(F)F)CC3)c(C#N)c2c(=O)n1CCOc1ccc(Cl)cc1-c1ccnc2c(C(=O)O)csc12` [compound 820] the same measures were less than 50 nM and 13.6 nM. Consider `Cc1nc2cc(C(F)(F)F)cc(C#N)c2c(=O)n1CCOc1ccc(Cl)cc1-c1cc(CN)nc2c(C(=O)O)csc12` [compound 452], for which the IC50 was less than 50 nM under setting [2] and 46.6 nM under setting [3]. As to `Cc1cc(-c2cc(Cl)ccc2OCCn2c(C)nc3cc(C(F)(F)F)cc(C#N)c3c2=O)c2scc(C(=O)O)c2c1F` [compound 333], the IC50 under setting [3] is 24.9 nM. Consider `Cc1nc2ccc(Cl)c(C#N)c2c(=O)n1CCOc1ccc(Cl)cc1-c1cccc(C(=O)O)c1` [compound 141], for which the IC50 reads like this: under setting [2], less than 50 nM; under setting [3], 44.2 nM. For `Cc1nc2c(C(F)F)ccc(C#N)c2c(=O)n1CCOc1ccc(Cl)cc1-c1cccc(C(=O)O)c1` [compound 37] the same measures were less than 50 nM and 39.6 nM. For `Cc1nc2cnc(N(C)C3CCN(C4CCC4(F)F)CC3)c(C#N)c2c(=O)n1CC#Cc1ccc(Cl)cc1-c1ccnc2c(C(=O)O)csc12` (stereo not shown) [compound 1166] the same measures were less than 50 nM and 28.6 nM. For `Cc1cc(-c2cc(Cl)ccc2OCCn2c(C)nc3cc(C(F)(F)F)c(-c4ncc(F)cc4F)c(C#N)c3c2=O)c2scc(C(=O)O)c2n1` [compound 433] the same measures were less than 50 nM and 4.15 nM.

On to `CSc1cc(C(=O)O)cc(-c2cc(Cl)ccc2OCCn2cnc3cnc(C#N)cc3c2=O)c1` [compound 95], for which the IC50 under setting [2] was more than 1000 nM and the IC50 under setting [3] is 2860 nM.

With `Cc1cc(-c2cc(Cl)ccc2OCCn2c(C)nc3cnc(NN(C)C)c(C#N)c3c2=O)c2scc(C(=O)O)c2n1` [compound 979], the IC50 runs as follows: under setting [2], less than 50 nM; under setting [3], 9.48 nM. On the same counts, the results for `Cc1cc(-c2cc(Cl)ccc2OCCn2c(C)nc3cnc(-c4ccc(F)cc4)c(C#N)c3c2=O)c2scc(C(=O)O)c2n1` [compound 943] are less than 50 nM and 14.7 nM. On to `COCCC(CCOC)N(C)c1ncc2nc(C)n(CC#Cc3ccc(Cl)cc3-c3ccnc4c(C(=O)O)csc34)c(=O)c2c1C#N` [1173b], for which the IC50 under setting [3] is 13 nM. With `N#Cc1cc(C(F)(F)F)cc2ncn(CCOc3ccc(Cl)cc3-c3ccnc4c(C(=O)O)csc34)c(=O)c12` [compound 1899], the IC50 under setting [1] is 16.4 nM. Take `CCc1cc(-c2cc(Cl)ccc2OCCn2c(C)nc3cc(C(F)(F)F)c(N4CCN(C)CC4)nc3c2=O)c2scc(C(=O)O)c2n1` [compound 1084]: the IC50 is, setting by setting: under setting [2], less than 50 nM; under setting [3], 15 nM. On the same counts, the results for `N#Cc1cc2c(=O)n(CCOc3ccc(Cl)cc3-c3ccc(C(=O)O)o3)cnc2cn1` [compound 79] are more than 1000 nM and 1650 nM. As to `Cc1nc2cc(C(F)(F)F)c(CCN(C)CC(F)F)c(C#N)c2c(=O)n1CCOc1ccc(Cl)cc1-c1ccnc2c(C(=O)O)csc12` [compound 1288], under setting [1], the IC50 is 36.7 nM. On to `Cc1nc2cc(C(F)(F)F)cc(C#N)c2c(=O)n1CCOc1ccc(Cl)cc1N1CCC(CC(=O)O)CC1` [compound 328], for which the IC50 is more than 1000 nM under setting [2] and 1320 nM under setting [3]. For `Cc1nc2cc(C(F)(F)F)cc(C#N)c2c(=O)n1CCOc1ccc(C#N)cc1-c1ccnc2c(C(=O)O)csc12` [compound 287] the same measures were less than 50 nM and 47.8 nM. On the same counts, the results for `Cc1cc(-c2nc(C)c3nc(C)n(CCOc4ccc(Cl)cc4-c4cc(C)nc5c(C(=O)O)csc45)c(=O)c3c2C#N)ccn1` [compound 911] are less than 50 nM and 17.1 nM. On the same counts, the results for `Cc1nc2cc(F)c(F)c(C#N)c2c(=O)n1CCOc1cc(F)c(Cl)cc1-c1ccnc2c(C(=O)O)csc12` [compound 506] are 50 to 1000 nM and 68.9 nM. In the case of `Cc1nc2cc(C(F)(F)F)c(CN3CCN(C)CC3)c(C#N)c2c(=O)n1CCOc1ccc(Cl)cc1-c1ccnc2ccsc12` [compound 1256], the IC50 under setting [1] is 24.7 nM. For the compound `Cc1cc(-c2cc(Cl)ccc2OCCn2c(C)nc3cc(OC(F)F)c(CCN(C)C)c(C#N)c3c2=O)c2scc(C(=O)O)c2n1` [compound 592], the IC50 was less than 50 nM under setting [2] and 10.3 nM under setting [3].
